Assay results taken from paper PMC9822133, “Design, Synthesis and Antiproliferative Evaluation of Bis-Indole Derivatives with a Phenyl Linker: Focus on Autophagy” (Molecules, 2022).

Tests used:
Caco-2 = assay: MTT screening assay, Caco-2; type: cell-based; conditions: Homo sapiens, 72 h incubation
From the text: (§1) The ability of newly synthesized indole phytoalexins to suppress cell proliferation was screened in vitro on eight cancer cell lines including human colorectal carcinoma (Caco-2 and HCT116), human cervical cancer (HeLa), human breast adenocarcinoma (MCF-7, MDA-MB-231), human alveolar adenocarcinoma (A549) and human leukemic T cell lymphoma (Jurkat), and two non-cancer cell lines (MCF-10A, Cos-7).
(§2) The cell lines used for this study were Caco-2 (human colorectal adenocarcinoma cell line, American Type Culture Collection, Manassas, VA, USA (ATCC)), HCT116 (human colorectal carcinoma cells European Collection of Authenticated Cell Cultures, Salisbury, UK (ECACC)), HeLa (human cervical tumor cells, ECACC), MCF-7 (human breast tumor cells, ECACC), MDA-MB-231 (human breast tumor cells, ATCC), A549 (human lung carcinoma cells, ATCC), BLM (human melanoma lung metastases, a gift from prof. K. Smetana, Institute of Anatomy, Charles University in Prague), Jurkat (human leukemia cell line, ECACC), Cos-7 (immortalized monkey kidney fibroblasts, ATCC) and MCF-10A (human mammary epithelial cells, ATCC). Caco-2, MCF-7, BLM, Cos-7 and A549 cells were cultured in Dulbecco’s Modified Eagle’s Medium (DMEM) with high glucose and sodium pyruvate (GE Healthcare, Piscataway, NJ, USA); HCT116 lines, HeLa, MDA-MB-231 and Jurkat were cultured in RPMI-1640 medium; and MCF10A cells were cultured in high glucose DMEM/F12 (Dulbecco’s Modified Eagle’s Medium F12). The media were enriched with 10% fetal bovine serum (FBS) and a 1% solution of a mixture of antibiotics and antimycotics 1× HyClone™ (GE Healthcare, Chicago, IL, USA). DMEM/F12 medium was supplemented with epidermal growth factor (EGF) (20 ng/mL final), hydrocortisone (0.5 μg/mL final) and insulin (10 μg/mL final) (Sigma-Aldrich Chemie, Steinheim, Germany). The cells were placed in an incubator at 37 °C with humidified air containing 5% CO2.
(§3) The MTT assay is a colorimetric method used to quantify the metabolic activity of cells. MTT (3-(4,5-di-methylthiazol-2-yl)2,5-diphenyltetrazolium bromide) (Sigma-Aldrich Chemie, Steinheim, Germany) is reduced by oxidoreductases in the cytosol of cells to light-absorbing formazan, the presence of which can be measured spectrophotometrically and determines the half-maximal inhibitory concentration (IC50). A549 cells were seeded in […] culture plates at a density of 5 × 10^3 per well. […]
(§4) We also incubated the cells with chloroquine at concentrations of 5–20 µM, which was added 1 h before the addition of the test substance, and cisplatin at concentrations of 3–10 µM. […] After 24 h, the absorbance was measured at a wavelength of 540 nm using an automated Cytation™ 3 Cell Imaging Multi-Mode Reader (Biotek, Winooski, VT, USA). […]

HeLa = assay: MTT screening assay, HeLa; type: cell-based; conditions: Homo sapiens, 72 h incubation
From the text: as §1, §2, §3, §4

[1] = tested on: glutathione-S-transferase (GST); assay: GST activity in treated A549 cells; type: cell-based, human; conditions: A549, 20 µM
From the text: Glutathione is an important intracellular molecule involved in carcinogen detoxification. On the other hand, its elevated state in cancer cells is often associated with resistance to chemotherapy. […] Because high levels of GSH are associated with cancer cell resistance, the GHS-depleting effect of compound 49 could be interesting due to new cancer chemosensitizer development. In the case of GST and GR, we hypothesize that an increase in the activity of both enzymes may be a compensatory mechanism induced by GSH depletion.
Both floating and adherent A549 cells were harvested at 24, 48, and 72 h after treatment with compound 49 (20 µM). SOD determination kit, Glutathione Peroxidase Cellular Activity Assay kit, Glutathione Reductase Assay Kit and Glutathione-S-transferase (GST) Assay Kit (all Sigma Aldrich, Germany) were used for the detection of relevant enzyme activity. Reduced glutathione (GSH) content was measured by the method originally described by Floreani et al.. Assays were performed on an M 501 single beam UV/VIS spectrophotometer (Spectronic Camspec Ltd., Leeds, United Kingdom). All measured parameters were calculated per milligram or gram of protein determined using the bicinchoninic acid assay.

Structure (SMILES): CC(C)(C)OC(=O)n1cc(CNC(=O)Nc2ccc(NC(=O)NCc3cn(C(=O)OC(C)(C)C)c4ccccc34)cc2)c2ccccc21 [Compound 49, N,N′-(1,4-phenylene)bis{N′-[1-(tert-butoxycarbonyl)indol-3-yl]methyl (urea)}]
- IC50 (Caco-2): 8.6 ± 0.9 µM
- IC50 (HeLa): 8.9 ± 0.2 µM
- GST ([1]; 24 h): 3.540 ± 1.07 μkat/mg Prot
- GST ([1]; 48 h): 2.580 ± 0.44 μkat/mg Prot
- GST ([1]; 72 h): 5.060 ± 0.52 μkat/mg Prot
